Measured values from patent publication US7312188B2, “Peptide derivatives having β-secretase inhibitory activity” (priority 2003, dated 2007).
Numbered stars: 1 amine (or outer) side, 2 acyl side, 3 side chain; on linkers, the order of the positions; unused ones are H or OH. Square brackets hold non-standard residues; d marks the D form. Peptide text beside a SMILES is read from it. * marks the point of attachment. ξ: configuration not given here. β3hPhe(2R-OH) = O=C([C@H](O)[C@H](Cc1ccccc1)N[*:1])[*:2]; X3 = CC(C)C[C@H](N[*:1])[C@@H](O)C(=O)[*:2]; Ala(4-thiazolyl) = N[C@@H](Cc1cscn1)C(=O)O; Thz(5,5-Me2) = CC1(C)SCN[C@@H]1C(=O)O; Oxalyl = O=C(C(=O)[*:2])[*:1]; 4Amb = NCc1ccc(C(=O)O)cc1; Orn = NCCC[C@H](N)C(=O)O; ξE = NC(CCC(=O)O)C(=O)O; Dap = NC[C@H](N)C(=O)O; X4 = CCOC(=O)C(=O)*

Each molecule was assayed against T1, recombinant human BACE-1 (rhBACE-1) (Homo sapiens, UniProt P56817) (assay: BACE1 inhibitory activity, reverse phase HPLC quantitation of N-terminal fragment of fluorogenic substrate). Settings: 1 μL of inhibitor solution in DMSO (100 μM) in 50 μL reaction; MES buffer pH 5.0; 37° C., 60 minutes.
T1 construct: expressed as only an extracellular region (amino acid 1-460 residues) of recombinant human β-secretase; His tag (C); purchased R&D systems (Minneapolis, Minn.); host or cells: murine myeloma cell line NS0
T1 sequence (P56817 22-460 limits assumed): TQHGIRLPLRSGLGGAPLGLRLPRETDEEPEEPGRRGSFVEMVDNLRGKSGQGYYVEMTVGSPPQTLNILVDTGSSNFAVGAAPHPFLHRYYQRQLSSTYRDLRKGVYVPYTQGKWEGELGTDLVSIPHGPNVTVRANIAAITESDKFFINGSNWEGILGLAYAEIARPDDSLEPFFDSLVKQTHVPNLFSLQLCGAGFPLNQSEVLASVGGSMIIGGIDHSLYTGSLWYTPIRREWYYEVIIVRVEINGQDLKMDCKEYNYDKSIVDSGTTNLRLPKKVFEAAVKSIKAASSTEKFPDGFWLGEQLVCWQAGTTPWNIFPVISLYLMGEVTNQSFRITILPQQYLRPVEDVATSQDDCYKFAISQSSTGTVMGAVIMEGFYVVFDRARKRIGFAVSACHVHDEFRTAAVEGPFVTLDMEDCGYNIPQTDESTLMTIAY
Assay type: biochemical
Excerpt: Experiment Regarding Measurement of BACE1 Inhibitory Activity
Enzyme Used in Measurement
As an enzyme having β-secretase activity, recombinant human BACE-1 (rhBACE-1) purchased from R&D systems (Minneapolis, Minn.) was used. rhBACE-1 is expressed as only an extracellular region (amino acid 1-460 residues) of recombinant human β-secretase, with a His tag at its carboxyl terminal in murine myeloma cell line, NS0. Purified secreted rhBACE1 is a mixture of a pro entity (about 75 kDa) and a mature entity (about 72 kDa).
Assessment of Enzyme Inhibitory Activity
Enzyme inhibitory activity of an inhibitor was assessed by quantitating an N-terminal fragment produced aftercleaving the substrate with BACE1 by reverse HPLC using (7-methoxycoumarin-4-yl)acetyl-[…]2,4-dinitrophenyl)-Arg-Arg-NH2 purchased from Peptide Institute (Osaka, Japan) as a substrate for BACE1. To 40 μL of 62.5 mM 2-(N-morpholino)ethansulfonic acid (MES)-CH3COOH—NaOH buffer (pH 5.0), were added 1 μL of a solution of an inhibitor diluted with DMSO (100 μM), 4 μL of rhBACE-1 (6.25 ng/μL), and 5 μL of an aqueous solution (50% DMSO) of 250 μM substrate (7-methoxycoumarin-4-yl)acetyl-[…]2,4-dinitrophenyl)-Arg-Arg-NH2 to initiate an enzyme reaction. After incubation at 37° C. for 60 minutes, 20 μL of 20% trichloroacetic acid was added to stop the reaction. And, inhibition % was calculated by measuring a fluorescent intensity of the N-terminal fragment (Ex, 328 nm; Em, 393 nm) using reverse phase HPLC (linear gradient of MeCN in aqueous TFA; flow rate, 1.0 mL/min).
BACE1 Inhibitory Activity
Enzyme inhibitory activity of an inhibitor was assessed by quantitating a N-terminal fragment produced after cleavage of a substrate with BACE1 by reverse phase HPLC using (7-methoxycoumarin-4-yl)acetyl-[…]2,4-dinitrophenyl)-Arg-Arg-NH2 purchased from Peptide Institute (Osaka, Japan) as a substrate for BACE1. Recombinant human BACE-1 purchased from R&D systems (Minneapolis, Minn.) was used. To 40 μL of 62.5 mM 2-(N-morpholino)ethansulfonic acid (MES)-CH3COOH—NaOH buffer (pH 5.0), were added 1 μL of a solution of an inhibitor diluted with DMSO (100 μM), 4 μL of BACE1 (6.25 ng/μL), and 5 μL of an aqueous solution (50% DMSO) of 250 μM substrate (7-methoxycoumarin-4-yl)acetyl-[…]2,4-dinitrophenyl)-Arg-Arg-NH2 to initiate an enzyme reaction. After incubation at 37° C. for 60 minutes, 20 μL of 20% trichloroacetic acid was added to stop a reaction. Inhibition % was calculated by measuring a fluorescent intensity of the N-terminal fragment (Ex, 328 nm; Em, 393 nm) using reverse phase HPLC (linear gradient of MeCN in aqueous TFA; flow rate, 1.0 mL/min).
Molecule `CCOC(=O)C(=O)NC[C@H](N)C(=O)N[C@H](C(=O)N[C@@H](CC(C)C)C(=O)N[C@@H](Cc1ccccc1)[C@@H](O)C(=O)N[C@@H](CC(=O)O)C(=O)N[C@@H](C)C(=O)N[C@@H](CCC(=O)O)C(=O)O)C(C)C` [Example 95] (H-[Dap](X4)VL[β3hPhe(2R-OH)]DAE-OH) has an inhibition at 2 µM of 61.7%.
Molecule `CC(C)C[C@H](NC(=O)[C@@H](NC(=O)[C@@H](N)CCC(=O)O)C(C)C)C(=O)N[C@@H](Cc1ccccc1)[C@@H](O)C(=O)N[C@H](C(=O)N[C@@H](C)C(=O)N[C@@H](CCC(=O)O)C(=O)N[C@@H](Cc1ccccc1)C(=O)O)C(C)C` [Example 96] (H-EVL[β3hPhe(2R-OH)]VAEF-OH) has an inhibition at 2 µM of 59.2%.
Molecule `CC(C)C[C@H](NC(=O)[C@@H](NC(=O)[C@@H](N)CCC(=O)O)C(C)C)C(=O)N[C@@H](CC(C)C)[C@@H](O)C(=O)N[C@@H](CC(=O)O)C(=O)N[C@@H](C)C(=O)N[C@@H](CCC(=O)O)C(=O)N[C@@H](Cc1ccccc1)C(=O)O` [Example 97] (H-EVL[X3]DAEF-OH) has an inhibition at 2 µM of 59.1%.
`CC(C)C[C@H](NC(=O)[C@@H](NC(=O)[C@@H](N)CCC(=O)O)C(C)C)C(=O)N[C@@H](Cc1ccccc1)[C@@H](O)C(=O)N[C@@H](CC(=O)O)C(=O)N[C@@H](C)C(=O)N[C@@H](CC(=O)O)C(=O)O` [Example 98] (H-EVL[β3hPhe(2R-OH)]DAD-OH) showed an inhibition at 2 µM of 58.4%.
In the case of `CC(C)[C@H](NC(=O)[C@@H](N)CCC(=O)O)C(=O)N[C@@H](Cc1cscn1)C(=O)N[C@@H](Cc1ccccc1)[C@@H](O)C(=O)N[C@@H](CC(=O)O)C(=O)N[C@@H](C)C(=O)N[C@@H](CCC(=O)O)C(=O)N[C@@H](Cc1ccccc1)C(=O)O` [Example 99] (H-EV[Ala(4-thiazolyl)][β3hPhe(2R-OH)]DAEF-OH), the inhibition at 2 µM is reported as 58%.
`CC(C)C[C@H](NC(=O)[C@@H](NC(=O)[C@@H](N)CCC(=O)O)C(C)C)C(=O)N[C@@H](Cc1ccccc1)[C@@H](O)C(=O)N[C@H](CC(=O)O)C(=O)O` [Example 100] (H-EVL[β3hPhe(2R-OH)][dD]-OH) was tested, and the inhibition at 2 µM was 56.9%.
Work on `CC(C)C[C@H](NC(=O)[C@@H](NC(=O)[C@@H](N)CCCNC(=O)C(=O)O)C(C)C)C(=O)N[C@@H](Cc1ccccc1)[C@@H](O)C(=O)N[C@@H](CC(=O)O)C(=O)N[C@@H](C)C(=O)N[C@@H](CCC(=O)O)C(=O)O` [Example 101] (H-[Orn](Oxalyl)VL[β3hPhe(2R-OH)]DAE-OH) yielded an inhibition at 2 µM of 56.1%.
For `CC(C)C[C@H](NC(=O)[C@@H](NC(=O)[C@@H](N)CCC(=O)O)C(C)C)C(=O)N[C@@H](Cc1ccccc1)[C@@H](O)C(=O)N[C@@H](CC(=O)O)C(=O)NCc1ccc(C(=O)O)cc1` [Example 103] (H-EVL[β3hPhe(2R-OH)]D[4Amb]-OH), the inhibition at 2 µM was 54.6%.
`CCOC(=O)C(=O)NC[C@H](N)C(=O)N[C@H](C(=O)N[C@@H](CC(C)C)C(=O)N[C@@H](Cc1ccccc1)[C@@H](O)C(=O)Nc1cc(C(=O)OC)cc(C(=O)OC)c1)C(C)C` [Example 104] showed an inhibition at 2 µM of 54.4%.
With `CC(C)C[C@H](NC(=O)[C@@H](NC(=O)[C@@H](N)CCC(=O)O)C(C)C)C(=O)N[C@@H](Cc1ccccc1)[C@@H](O)C(=O)N1CSC(C)(C)[C@H]1C(=O)N[C@@H](C)C(=O)NC(CCC(=O)O)C(=O)N[C@@H](Cc1ccccc1)C(=O)O` (stereo partly drawn) [Example 106] (H-EVL[β3hPhe(2R-OH)][Thz(5,5-Me2)]A[ξE]F-OH) the inhibition at 2 µM was 53%.
`CC(C)C[C@H](NC(=O)[C@@H](NC(=O)[C@@H](N)CCC(=O)O)C(C)C)C(=O)N[C@@H](Cc1ccccc1)[C@@H](O)C(=O)N[C@@H](CC(C)C)C(=O)N[C@@H](C)C(=O)N[C@@H](CCC(=O)O)C(=O)N[C@@H](Cc1ccccc1)C(=O)O` [Example 107] (H-EVL[β3hPhe(2R-OH)]LAEF-OH) showed an inhibition at 2 µM of 52.1%.
`CC(C)C[C@H](NC(=O)[C@@H](NC(=O)[C@@H](N)CCC(=O)O)C(C)C)C(=O)N[C@@H](Cc1ccccc1)[C@@H](O)C(=O)N[C@@H](CC(=O)O)C(=O)N[C@@H](C)C(=O)NCc1ccc(C(=O)O)cc1` [Example 108] (H-EVL[β3hPhe(2R-OH)]DA[4Amb]-OH) showed an inhibition at 2 µM of 51.3%.
